Among the data in PubChem BioAssay (NCI) are TGI and GI50 values, retold here.

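48-hour exposure; five concentrations; linearly interpolated endpoints. Abbreviation: GI50, concentration required for 50% inhibition of growth. The concentration for full growth arrest is given as TGI.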

The subject of one test is PC-3 prostate. As to the kind of experiment: DTP human tumour cell line panel, 48 h.
For orientation: TGI means the concentration at which net growth stops. `C(=C\c1cccs1)/c1cccc(/C=C/c2cccs2)n1` had a TGI above 100 µM.
`CC(CCN)(CCN)[N+](=O)[O-]` returned a TGI above 100 µM.
`CSc1nc(C#N)c(/N=C\N(C)C)n1C`: the TGI was above 100 µM.

In the next test the test system is SN12C renal. As to the kind of experiment: DTP human tumour cell line panel, 48 h.
`CCOC(=O)c1cnc2oc3ccc(O)cc3c2c1C` displayed a concentration for total growth inhibition (TGI) above 100 µM.
The compound `COC(=O)C1(CCC(C)=O)CCCCCC1=O` (stereo not drawn) showed a TGI above 100 µM.
Take `COC(=O)c1ccc(C)cc1CC1Cc2cc(C)ccc2C1=O` (stereo not drawn): the TGI is above 100 µM.
`C(=C\c1cccs1)/c1cccc(/C=C/c2cccs2)n1`: the TGI was above 100 µM.
Same read-out and setting: with `CC(CCN)(CCN)[N+](=O)[O-]` the figure was above 100 µM.
`CSc1nc(C#N)c(/N=C\N(C)C)n1C` came in with a TGI above 100 µM.

The subject of a further test is MDA-N. Kind of test: DTP human tumour cell line panel, 48 h.
Take `CCOC(=O)c1cnc2oc3ccc(O)cc3c2c1C`: the TGI was above 100 µM.
Regarding `COC(=O)C1(CCC(C)=O)CCCCCC1=O` (stereo not drawn), the concentration for total growth inhibition (TGI) is above 100 µM.
In the case of `COC(=O)c1ccc(C)cc1CC1Cc2cc(C)ccc2C1=O` (stereo not drawn), the TGI is above 100 µM.
Same read-out and setting: with `C(=C\c1cccs1)/c1cccc(/C=C/c2cccs2)n1` the figure was above 100 µM.
Compound `CC(CCN)(CCN)[N+](=O)[O-]` showed a TGI above 100 µM.
With `CSc1nc(C#N)c(/N=C\N(C)C)n1C`, the TGI is above 100 µM.

The subject of another test is MOLT-4 leukemia. Kind of test: DTP human tumour cell line panel, 48 h.
Turning to `CCOC(=O)c1cnc2oc3ccc(O)cc3c2c1C`, the TGI was above 100 µM.
Compound `COC(=O)C1(CCC(C)=O)CCCCCC1=O` (stereo not drawn) returned a TGI above 100 µM.
In turn, `COC(=O)c1ccc(C)cc1CC1Cc2cc(C)ccc2C1=O` (stereo not drawn) gave a TGI above 100 µM.
On to `C(=C\c1cccs1)/c1cccc(/C=C/c2cccs2)n1`, for which the TGI is above 100 µM.
`CC(CCN)(CCN)[N+](=O)[O-]`: the total growth inhibition concentration (TGI) is above 100 µM.
The same measure, in the same setting: as for `CSc1nc(C#N)c(/N=C\N(C)C)n1C`, the figure is above 100 µM.

A further test deals with OVCAR-4 ovarian. As to the kind of experiment: DTP human tumour cell line panel, 48 h.
As to `CCOC(=O)c1cnc2oc3ccc(O)cc3c2c1C`, the TGI was above 100 µM.
On the same count and under the same terms, with `COC(=O)C1(CCC(C)=O)CCCCCC1=O` (stereo not drawn) the figure was above 100 µM; with `COC(=O)c1ccc(C)cc1CC1Cc2cc(C)ccc2C1=O` (stereo not drawn), above 100 µM.
On to `C(=C\c1cccs1)/c1cccc(/C=C/c2cccs2)n1`, for which the TGI is 66.6 µM.
The same measure, in the same setting: as for `CC(CCN)(CCN)[N+](=O)[O-]`, the figure is above 100 µM; as for `CSc1nc(C#N)c(/N=C\N(C)C)n1C`, above 100 µM.

Another test relates to SF-539 CNS. Kind of test: DTP human tumour cell line panel, 48 h.
On to `CCOC(=O)c1cnc2oc3ccc(O)cc3c2c1C`, for which the TGI was above 100 µM.
As for `COC(=O)C1(CCC(C)=O)CCCCCC1=O` (stereo not drawn), the TGI is above 100 µM.
In turn, `COC(=O)c1ccc(C)cc1CC1Cc2cc(C)ccc2C1=O` (stereo not drawn) registered a TGI above 100 µM.
As to `C(=C\c1cccs1)/c1cccc(/C=C/c2cccs2)n1`, the TGI is above 100 µM.
As to `CC(CCN)(CCN)[N+](=O)[O-]`, the TGI is above 100 µM.
Still for that read-out and setting: as for `CSc1nc(C#N)c(/N=C\N(C)C)n1C`, the figure is above 100 µM.

For the next test, the system named is SR leukemia. As to the kind of experiment: DTP human tumour cell line panel, 48 h.
In the case of `CCOC(=O)c1cnc2oc3ccc(O)cc3c2c1C`, the TGI is above 100 µM.
`COC(=O)C1(CCC(C)=O)CCCCCC1=O` (stereo not drawn) showed a TGI above 100 µM.
The same measure, in the same setting: with `COC(=O)c1ccc(C)cc1CC1Cc2cc(C)ccc2C1=O` (stereo not drawn) the figure was above 100 µM; with `C(=C\c1cccs1)/c1cccc(/C=C/c2cccs2)n1`, above 100 µM; with `CC(CCN)(CCN)[N+](=O)[O-]`, above 100 µM.
With `CSc1nc(C#N)c(/N=C\N(C)C)n1C`, the TGI was above 100 µM.

In the next test the test system is SK-OV-3 ovarian. As to the kind of experiment: DTP human tumour cell line panel, 48 h.
For `CCOC(=O)c1cnc2oc3ccc(O)cc3c2c1C`, the TGI is above 100 µM.
Take `COC(=O)C1(CCC(C)=O)CCCCCC1=O` (stereo not drawn): the TGI was above 100 µM.
`COC(=O)c1ccc(C)cc1CC1Cc2cc(C)ccc2C1=O` (stereo not drawn) gave a TGI above 100 µM.
`C(=C\c1cccs1)/c1cccc(/C=C/c2cccs2)n1` registered a TGI above 100 µM.
Consider `CC(CCN)(CCN)[N+](=O)[O-]`, for which the TGI is above 100 µM.
On to `CSc1nc(C#N)c(/N=C\N(C)C)n1C`, for which the TGI is above 100 µM.

In the next test the test system is UACC-257 melanoma. As to the kind of experiment: DTP human tumour cell line panel, 48 h.
On to `CCOC(=O)c1cnc2oc3ccc(O)cc3c2c1C`, for which the TGI is above 100 µM.
`COC(=O)C1(CCC(C)=O)CCCCCC1=O` (stereo not drawn): the TGI was above 100 µM.
Turning to `COC(=O)c1ccc(C)cc1CC1Cc2cc(C)ccc2C1=O` (stereo not drawn), the TGI was above 100 µM.
For the compound `C(=C\c1cccs1)/c1cccc(/C=C/c2cccs2)n1`, the TGI was above 100 µM.
Turning to `CC(CCN)(CCN)[N+](=O)[O-]`, the TGI is above 100 µM.
Compound `CSc1nc(C#N)c(/N=C\N(C)C)n1C` returned a TGI above 100 µM.

In a further test the test system is KM12 colon. As to the kind of experiment: DTP human tumour cell line panel, 48 h.
As a reminder, the GI50 is the concentration that inhibits growth by half. Regarding `CCOC(=O)c1cnc2oc3ccc(O)cc3c2c1C`, the GI50 was 70.3 µM and the TGI is above 100 µM.
Consider `COC(=O)C1(CCC(C)=O)CCCCCC1=O` (stereo not drawn), for which the TGI is above 100 µM.
Still for that read-out and setting: as for `COC(=O)c1ccc(C)cc1CC1Cc2cc(C)ccc2C1=O` (stereo not drawn), the figure is above 100 µM.
On the same count and under the same terms, as for `C(=C\c1cccs1)/c1cccc(/C=C/c2cccs2)n1`, the figure is above 100 µM; as for `CC(CCN)(CCN)[N+](=O)[O-]`, above 100 µM.
The compound `CSc1nc(C#N)c(/N=C\N(C)C)n1C` returned a TGI above 100 µM.
